# How the values were obtained:
# Assay type in all cases: cell-based
# [1] = test system: RBL-2H3; test: Intracellular calcium increasing activity in RBL2H3 (FLIPR); set-up: unit not given here
# Protocol: (§1) RBL-2H3 (hereinafter RBL2H3) was incubated in α-MEM (Invitrogen) supplemented with 10% fetal calf serum. Vector plasmid pcDNA3.1 for animal cell expression, in which the nucleotide sequence containing the initiation codon to the termination codon of human TGR12 (DNA having the nucleotide sequence represented by SEQ ID NO: 32) was incorporated, was stably expressed in RBL-2H3 to establish human TGR12-expressed RBL-2H3 cell line (hereinafter RBL2H3-TGR12). RBL2H3-TGR12 was incubated in α-MEM (Invitrogen) supplemented with 10% fetal calf serum and 200 μg/mL of Geneticin.
# The intracellular calcium increasing activity was assayed as follows. RBL2H3 and RBL2H3-TGR12 were plated in a 96-well plate at a density of 40,000 cells/well and incubated overnight. The medium was then discarded and 100 μL/well of 4 μM Fluo3-AM (Dojin Kagaku)-containing assay buffer [Hank's Balanced Salt Solution (Invitrogen), 20 mM HEPES (Dojin Kagaku) and 2.5 mM Probenecid (Sigma)] was added. The mixture was allowed to stand for an hour at 37° C. Various TGR12 (Peptide Institute, Inc.) or calcium ionophore A23187 (Wako Pure Chemical) was diluted in 0.05% CHAPS-containing assay buffer. After the cells were washed with the assay buffer, fluorescence emitted with changes in intracellular calcium was measured using FLIPR (Molecular Device). A sample, 50 μL, was added at a rate of 50 μL/sec. 10 seconds after initiation of the assay. Fluorescence was measured every 1 second during the first 60 seconds and every 6 seconds during the next 120 seconds. The highest fluorescence intensity during 3 minutes was made the maximum activity under the stimulation conditions, which was taken as an average of 3 wells. The EC50 values were calculated using Graphpad PRISM 4 (Graphpad Software).
# [2] = test system: RBL-2H3; test: Degranulation promoting effect in RBL2H3 (β-hexosaminidase release)
# Protocol: as §1
# The degranulation promoting effect was determined as follows. RBL2H3 and RBL2H3-TGR12 were plated into a 96-well plate at a density of 40,000 cells/well and incubated overnight. Afterward the medium was discarded. […] The β-hexosaminidase activity in the supernatant for the degranulation assay was measured as follows to determine the degree of degranulation. The supernatant was dispensed into a 96-well plate and a 5-fold volume of 0.1M citrate (pH 4.5)/1 mM 4-methyl umbelliferyl-2-acetamido-2-deoxy-beta-D-glucopyranoside (Wako Pure Chemical) based on the volume of the supernatant was added thereto, followed by incubation at 37° C. for an hour. Subsequently, a 0.1-fold volume of 0.2 M glycine/NaCO3 (pH 10.7) based on the volume of the reaction solution was added to stop the reaction and the fluorescence was measured using Fusion-α (Perkin Elmer). For the β-hexosaminidase activity, the activity in the supernatant, which was obtained by likewise plating RBL2H3 and RBL2H3-TGR12GFP onto the plate, detaching the same with trypsin/EDTA, freeze-thawing 4 times and then centrifugation, was made the total β-hexosaminidase activity in LAD 2. The degree of degranulation was shown by a ratio of the β-hexosaminidase activity in the LAD 2 supernatant to the total β-hexosaminidase activity.
# [3] = test system: human mast cell line LAD 2; test: Expression of TNF-α, CCL-2 or CCL-5 mRNA in LAD 2 (TaqMan PCR); conditions: 1 μM
# Protocol: Human mast cell line LAD 2 was cultured in StemPro-34 medium (Invitrogen) supplemented with 100 ng/mL of stem cell factor (Immuno-Biological Laboratories Co., Ltd.). […] A 750 μL aliquot was inoculated on a 24-well plate, which was then allowed to stand in a CO2 incubator at 37° C. for 30 minutes. […] The assay was performed for the respective reaction conditions in n=3. The plate was ice-chilled 0.5, 2, 8 and 24 hours after to stop the activation of LAD 2. After centrifugation at 300×g for 5 minutes, total RNA was extracted from the precipitated cells using RNeasy Mini Kit (Qiagen) according to the protocol attached. Further in the experiments where expression levels upon stimulation by various TGR12 ligands were analyzed, LAD 2 was centrifuged at 300×g for 5 minutes and the cells precipitated were counted and suspended in the medium at 1.33×10^6 cells/mL. A 750 μL aliquot was inoculated on a 24-well plate, which was allowed to stand in a CO2 incubator at 37° C. for 30 minutes. […] The assay was performed for the respective reaction conditions in n=3. Two hours after, the plate was ice-chilled to stop the activation of LAD 2. After centrifugation at 300×g for 5 minutes, total RNA was extracted from the precipitated cells using RNeasy Mini Kit (Qiagen) according to the protocol attached. The total RNA obtained as described above was concentrated using ethachinmate according to the protocol attached and dissolved in RNase-free H2O, Next, using the solution corresponding to […] of total RNA, reverse transcription was performed by the following procedure using SuperScript II reverse transcriptase (Invitrogen) to synthesize single stranded cDNA. To the total RNA solution, 0.1 μg of random primer (Invitrogen) and 1 μL of 10 mM dNTP (Invitrogen) were added and then RNase-free H2O was added to make the whole volume 12 μL. The mixture was then incubated at 70° C. for 10 minutes and ice-cooled for a minute. After 4 μL of 5× First-Strand Buffer (attached to SuperScript II reverse transcriptase), 2 μL of 0.1M DTT (attached to SuperScript II reverse transcriptase), 1 μL of RNaseOUT (Invitrogen) and 1 μL of SuperScript II reverse transcriptase were added, the mixture was incubated at 42° C. for 50 minutes, then at 70° C. for 15 minutes and ice-cooled for 5 minutes. The thus obtained cDNA was purified using ethachinmate in accordance with the protocol attached and dissolved in Tris-EDTA buffer (Fluka).
# In TaqMan PCR below, hTNFalpha-tF (SEQ ID NO: 33) and hTNFalpha-tR (SEQ ID NO: 34) were used as primers for human TNF-α quantification, hTNFalpha-tP (SEQ ID NO: 35) as a probe and hTNFalpha-standard (SEQ ID NO: 36) as a standard. For human CCL-5 quantification, hCCL5-tF (SEQ ID NO: 37) and hCCL5-tR (SEQ ID NO: 38) were used as primers, hCCL5-tP (SEQ ID NO: 39) as a probe and hCCL5 standard (SEQ ID NO: 40) as a standard. For human CCL-2 quantification, hCCL2-tF (SEQ ID NO: 41) and hCCL2-tR (SEQ ID NO: 42) were used as primers, hCCL2-tP (SEQ ID NO: 43) as a probe and hCCL2 standard (SEQ ID NO: 44) as a standard.
# TaqMan PCR was performed in n=2 for each sample in a liquid volume of 15 μl using 12.5 ng of total RNA as a template. The reaction solution was composed of 900 nM primer, 250 nM probe and ½ volume of TaqMan Universal PCR Master Mix (Applied Biosystems). The reaction and analysis were performed by ABI PRISM 7900HT Sequence Detection System (Applied Biosystems). After keeping warm at 50° C. for 2 minutes and then at 95° C. for 10 minutes, the reaction cycle was set in one cycle to include 95° C. for 15 seconds and 60° C. for 1 minute and repeating the cycle 40 times.
# [4] = time course, 0.5 hours after the stimulation
# [5] = time course, 2 hours after the stimulation
# [6] = time course, 8 hours after the stimulation
# [7] = time course, 24 hours after the stimulation
# [8] = various TGR12 ligands experiment, two hours after stimulation
smiles,measurement,setting,value
CSCC[C@H](NC(=O)[C@H](CC(C)C)NC(=O)CNC(=O)[C@H](Cc1ccccc1)NC(=O)[C@H](Cc1ccccc1)NC(=O)[C@H](CCC(N)=O)NC(=O)[C@H](CCC(N)=O)NC(=O)[C@@H]1CCCN1C(=O)[C@H](CCCCN)NC(=O)[C@@H]1CCCN1C(=O)[C@@H](N)CCCNC(=N)N)C(N)=O [substance P],maximum activity in the calcium increasing effect,"[1]; RBL2H3, 1 nM",44
same,maximum activity in the calcium increasing effect,"[1]; RBL2H3, 10 nM",51
same,maximum activity in the calcium increasing effect,"[1]; RBL2H3, 100 nM",50
same,maximum activity in the calcium increasing effect,"[1]; RBL2H3, 1 μM",95
same,maximum activity in the calcium increasing effect,"[1]; RBL2H3, 10 μM",41
same,degranulation (β-hexosaminidase in supernatant to total),"[2]; RBL2H3, 10 nM",8.8%
same,degranulation (β-hexosaminidase in supernatant to total),"[2]; RBL2H3, 30 nM",8.9%
same,degranulation (β-hexosaminidase in supernatant to total),"[2]; RBL2H3, 100 nM",8.9%
same,degranulation (β-hexosaminidase in supernatant to total),"[2]; RBL2H3, 300 nM",8.5%
same,degranulation (β-hexosaminidase in supernatant to total),"[2]; RBL2H3, 1 μM",8.4%
same,degranulation (β-hexosaminidase in supernatant to total),"[2]; RBL2H3, 3 μM",7.9%
same,expression level of CCL-5 in LAD 2,[3]; [4],38107 copies
same,expression level of TNF-α in LAD 2,[3]; [4],56065 copies
same,expression level of CCL-5 in LAD 2,[3]; [5],88872 copies
same,expression level of TNF-α in LAD 2,[3]; [5],1346293 copies
same,expression level of CCL-5 in LAD 2,[3]; [6],69921 copies
same,expression level of TNF-α in LAD 2,[3]; [6],54313 copies
same,expression level of CCL-5 in LAD 2,[3]; [7],53605 copies
same,expression level of TNF-α in LAD 2,[3]; [7],4332 copies
same,expression level of CCL-2 in LAD 2,[3]; [8],2694837 copies
same,expression level of CCL-5 in LAD 2,[3]; [8],47117 copies
same,expression level of TNF-α in LAD 2,[3]; [8],173462 copies

# — patent US20100068208A1, “Degranulation inhibitor” (priority 2005, published 2010)
